Here are results for five molecules from paper PMC10175918 (Communications Biology, 2023).

Each structure is given as a SMILES string. Like-named read-outs stand apart in the source and are kept apart here.

What all share (assay): TGFα-shedding assay-based GPCR screening with chimeric Gα subunit proteins
What all share (type): cell-based

In assay [1] the target is 348 GPCRs (Homo sapiens, UniProt P46093).
For assay [2], the target named is T1, 348 GPCRs (Homo sapiens, UniProt Q9BXA5).
T1 construct: expressed in transfected cells; host or cells: HEK293A
T1 sequence (Q9BXA5 1-334): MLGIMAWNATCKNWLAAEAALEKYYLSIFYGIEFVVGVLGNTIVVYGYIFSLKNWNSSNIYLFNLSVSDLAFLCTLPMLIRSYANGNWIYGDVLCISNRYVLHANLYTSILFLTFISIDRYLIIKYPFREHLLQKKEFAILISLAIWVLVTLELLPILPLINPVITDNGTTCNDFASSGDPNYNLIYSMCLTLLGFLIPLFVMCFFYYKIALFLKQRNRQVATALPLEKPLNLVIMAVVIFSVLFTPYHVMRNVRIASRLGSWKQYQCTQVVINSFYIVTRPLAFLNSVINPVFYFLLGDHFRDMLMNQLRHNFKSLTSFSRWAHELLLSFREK
The settings on record: 10µM, Favipiravir 100μM.

The target in assay [3] is T2, 348 GPCRs (Homo sapiens, UniProt P46095).
T2 construct: expressed in transfected cells; host or cells: HEK293A

Assay [4] deals with T3, 348 GPCRs (Homo sapiens, UniProt P25089).
T3 construct: expressed in transfected cells; host or cells: HEK293A
T3 sequence (P25089 1-353): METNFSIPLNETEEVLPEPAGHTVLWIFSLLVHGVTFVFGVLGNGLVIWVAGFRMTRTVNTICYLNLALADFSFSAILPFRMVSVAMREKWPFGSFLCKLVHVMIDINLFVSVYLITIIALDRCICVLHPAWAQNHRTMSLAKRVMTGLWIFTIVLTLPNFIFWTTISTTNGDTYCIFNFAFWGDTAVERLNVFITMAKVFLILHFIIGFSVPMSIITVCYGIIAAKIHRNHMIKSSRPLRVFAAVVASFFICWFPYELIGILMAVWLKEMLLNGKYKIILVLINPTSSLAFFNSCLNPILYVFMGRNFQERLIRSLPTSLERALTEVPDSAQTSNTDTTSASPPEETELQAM
The settings on record: 10µM, Favipiravir 100μM.

Assay [5] concerns the target T4, 348 GPCRs (Homo sapiens, UniProt Q8IZF7).
T4 construct: expressed in transfected cells; host or cells: HEK293A
T4 sequence (Q8IZF7 1-708): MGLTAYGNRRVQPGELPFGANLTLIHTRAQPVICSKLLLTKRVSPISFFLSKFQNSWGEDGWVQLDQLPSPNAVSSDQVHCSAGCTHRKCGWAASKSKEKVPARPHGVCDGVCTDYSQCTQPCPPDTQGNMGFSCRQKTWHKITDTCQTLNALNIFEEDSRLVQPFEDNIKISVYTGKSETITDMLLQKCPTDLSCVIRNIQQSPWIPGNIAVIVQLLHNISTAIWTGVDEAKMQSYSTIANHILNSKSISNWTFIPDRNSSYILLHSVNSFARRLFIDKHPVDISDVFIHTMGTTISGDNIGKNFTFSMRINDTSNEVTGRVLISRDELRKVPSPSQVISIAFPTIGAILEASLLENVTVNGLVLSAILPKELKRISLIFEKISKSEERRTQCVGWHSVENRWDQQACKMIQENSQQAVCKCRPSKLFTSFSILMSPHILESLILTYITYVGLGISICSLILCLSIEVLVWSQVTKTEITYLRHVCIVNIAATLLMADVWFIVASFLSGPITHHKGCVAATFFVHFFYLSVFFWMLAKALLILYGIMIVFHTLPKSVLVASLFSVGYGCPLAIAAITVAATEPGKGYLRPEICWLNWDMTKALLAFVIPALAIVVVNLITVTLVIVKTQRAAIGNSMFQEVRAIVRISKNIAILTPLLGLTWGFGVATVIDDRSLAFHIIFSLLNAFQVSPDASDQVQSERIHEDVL

The target of assay [6] is T5, 348 GPCRs (Homo sapiens, UniProt Q14416).
T5 construct: expressed in transfected cells; host or cells: HEK293A
Conditions: 10µM, Favipiravir 100μM.

Assay [7] concerns the target T6, 348 GPCRs (Homo sapiens, UniProt Q13258).
T6 sequence (Q13258 1-359): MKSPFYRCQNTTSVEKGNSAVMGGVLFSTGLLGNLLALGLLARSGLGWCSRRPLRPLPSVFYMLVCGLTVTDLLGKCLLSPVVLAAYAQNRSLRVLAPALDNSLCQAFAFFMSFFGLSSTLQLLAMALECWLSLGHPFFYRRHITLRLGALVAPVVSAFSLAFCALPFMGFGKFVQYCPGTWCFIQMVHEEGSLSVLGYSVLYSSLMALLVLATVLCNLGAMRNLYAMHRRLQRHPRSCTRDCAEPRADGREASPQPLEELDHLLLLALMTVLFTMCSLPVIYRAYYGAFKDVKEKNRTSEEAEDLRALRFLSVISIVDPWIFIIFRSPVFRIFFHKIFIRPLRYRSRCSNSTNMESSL
The settings on record: 10µM, Favipiravir 100μM.

Assay [8] concerns the target T7, 348 GPCRs (Homo sapiens, UniProt P47871).
T7 construct: expressed in transfected cells; host or cells: HEK293A
The settings on record: 10µM, Favipiravir 100μM.

Assay [9] concerns the target T8, 348 GPCRs (Homo sapiens, UniProt P25105).
T8 construct: expressed in transfected cells; host or cells: HEK293A

For assay [10], the target named is T9, 348 GPCRs (Homo sapiens, UniProt Q8WXD0).
T9 construct: expressed in transfected cells; host or cells: HEK293A
Conditions: RXFP2 (relaxin/insulin-like family peptide receptor 2); 10µM, Favipiravir 100μM.

Where [11] appears, read: SUCNR1 (succinate receptor 1), read-out: % GPCR activation compared to TPA.
The mark [12] stands for this setting: FPR3 (formyl peptide receptor 3), read-out: % GPCR activation compared to TPA.
The mark [13] stands for this setting: GRM2 (glutamate metabotropic receptor 2), read-out: % GPCR activation compared to TPA.
Setting [14] is: DP (prostaglandin D2 receptor), read-out: % GPCR activation compared to TPA.
Where [15] appears, read: GCGR (glucagon receptor), read-out: % GPCR activation compared to TPA.
Where [16] appears, read: read-out: % GPCR activation compared to TPA, GPCR GPR4 (G Protein-Coupled Receptor 4).
Setting [17] is: read-out: % GPCR activation compared to TPA, SUCNR1 (succinate receptor 1).
Where [18] appears, read: read-out: % GPCR activation compared to TPA, GPCR GPR6 (G protein-coupled receptor 6).
Where [19] appears, read: read-out: % GPCR activation compared to TPA, FPR3 (formyl peptide receptor 3).
Setting [20] is: read-out: % GPCR activation compared to TPA, GPCR GPR111 (G-protein-coupled receptor 111 (ADGRF2)).
Where [21] appears, read: read-out: % GPCR activation compared to TPA, GRM2 (glutamate metabotropic receptor 2).
The mark [22] stands for this setting: read-out: % GPCR activation compared to TPA, DP (prostaglandin D2 receptor).
Where [23] appears, read: read-out: % GPCR activation compared to TPA, GCGR (glucagon receptor).
Where [24] appears, read: read-out: % GPCR activation compared to TPA, GPCR PAFR (platelet activating factor receptor).
Setting [25] is: GPCR GPR4 (G Protein-Coupled Receptor 4), read-out: % GPCR activation compared to TPA.
[26] abbreviates: GPCR GPR6 (G protein-coupled receptor 6), read-out: % GPCR activation compared to TPA.
Setting [27] is: GPCR GPR111 (G-protein-coupled receptor 111 (ADGRF2)), read-out: % GPCR activation compared to TPA.
[28] abbreviates: GPCR PAFR (platelet activating factor receptor), read-out: % GPCR activation compared to TPA.

Sequence of 348 GPCRs (Homo sapiens, UniProt P46093) (P46093 whole entry): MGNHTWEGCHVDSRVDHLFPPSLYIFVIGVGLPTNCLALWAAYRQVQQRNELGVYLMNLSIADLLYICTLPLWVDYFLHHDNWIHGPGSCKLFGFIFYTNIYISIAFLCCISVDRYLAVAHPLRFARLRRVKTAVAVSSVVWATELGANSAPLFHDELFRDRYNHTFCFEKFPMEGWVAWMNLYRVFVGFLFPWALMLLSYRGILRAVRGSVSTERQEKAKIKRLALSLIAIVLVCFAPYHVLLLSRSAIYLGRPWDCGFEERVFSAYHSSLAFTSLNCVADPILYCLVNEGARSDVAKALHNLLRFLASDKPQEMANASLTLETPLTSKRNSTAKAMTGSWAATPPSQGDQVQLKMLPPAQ
T7 sequence (P47871 26-477): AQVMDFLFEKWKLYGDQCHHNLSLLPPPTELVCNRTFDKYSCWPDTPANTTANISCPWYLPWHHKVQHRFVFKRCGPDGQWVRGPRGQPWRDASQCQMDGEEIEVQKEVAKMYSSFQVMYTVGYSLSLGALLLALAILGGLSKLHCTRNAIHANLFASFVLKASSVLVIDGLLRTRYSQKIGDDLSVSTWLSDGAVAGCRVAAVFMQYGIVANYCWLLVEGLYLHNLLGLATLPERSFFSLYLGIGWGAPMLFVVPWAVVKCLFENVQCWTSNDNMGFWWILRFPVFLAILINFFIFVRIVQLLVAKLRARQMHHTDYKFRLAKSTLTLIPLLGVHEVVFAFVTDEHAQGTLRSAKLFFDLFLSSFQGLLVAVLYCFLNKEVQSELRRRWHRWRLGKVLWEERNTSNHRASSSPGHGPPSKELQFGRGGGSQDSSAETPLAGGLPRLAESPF
T5 sequence (Q14416 19-872): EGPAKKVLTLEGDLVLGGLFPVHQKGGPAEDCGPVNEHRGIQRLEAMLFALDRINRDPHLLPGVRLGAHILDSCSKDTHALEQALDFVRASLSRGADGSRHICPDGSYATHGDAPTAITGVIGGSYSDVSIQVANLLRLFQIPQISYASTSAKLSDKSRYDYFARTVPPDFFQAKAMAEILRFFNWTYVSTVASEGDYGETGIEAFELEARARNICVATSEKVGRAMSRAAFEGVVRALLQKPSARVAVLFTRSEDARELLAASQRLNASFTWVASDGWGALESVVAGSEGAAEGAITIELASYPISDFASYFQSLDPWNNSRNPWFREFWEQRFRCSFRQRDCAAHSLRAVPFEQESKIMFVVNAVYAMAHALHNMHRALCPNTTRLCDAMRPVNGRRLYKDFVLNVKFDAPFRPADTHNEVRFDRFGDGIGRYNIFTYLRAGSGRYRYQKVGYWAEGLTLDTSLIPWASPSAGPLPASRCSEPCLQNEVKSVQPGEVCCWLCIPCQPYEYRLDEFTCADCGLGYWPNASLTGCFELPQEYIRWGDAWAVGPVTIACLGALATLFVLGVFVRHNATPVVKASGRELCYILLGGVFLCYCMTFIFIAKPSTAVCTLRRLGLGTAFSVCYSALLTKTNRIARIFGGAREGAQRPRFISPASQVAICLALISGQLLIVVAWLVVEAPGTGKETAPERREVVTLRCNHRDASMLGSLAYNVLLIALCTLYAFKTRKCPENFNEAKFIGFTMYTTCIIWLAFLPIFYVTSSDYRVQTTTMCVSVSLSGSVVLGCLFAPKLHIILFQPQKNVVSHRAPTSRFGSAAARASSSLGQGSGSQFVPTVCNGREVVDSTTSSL
T8 sequence (P25105 whole entry): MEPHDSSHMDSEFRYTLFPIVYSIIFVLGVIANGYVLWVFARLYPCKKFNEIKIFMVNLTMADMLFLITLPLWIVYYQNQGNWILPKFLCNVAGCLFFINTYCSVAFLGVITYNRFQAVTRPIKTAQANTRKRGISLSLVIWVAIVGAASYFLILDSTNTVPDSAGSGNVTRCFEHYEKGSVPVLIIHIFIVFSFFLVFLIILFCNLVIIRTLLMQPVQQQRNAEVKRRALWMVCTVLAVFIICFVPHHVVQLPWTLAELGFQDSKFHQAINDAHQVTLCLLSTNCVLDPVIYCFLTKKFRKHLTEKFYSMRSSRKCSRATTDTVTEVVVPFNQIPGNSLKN
T9 sequence (Q8WXD0 whole entry): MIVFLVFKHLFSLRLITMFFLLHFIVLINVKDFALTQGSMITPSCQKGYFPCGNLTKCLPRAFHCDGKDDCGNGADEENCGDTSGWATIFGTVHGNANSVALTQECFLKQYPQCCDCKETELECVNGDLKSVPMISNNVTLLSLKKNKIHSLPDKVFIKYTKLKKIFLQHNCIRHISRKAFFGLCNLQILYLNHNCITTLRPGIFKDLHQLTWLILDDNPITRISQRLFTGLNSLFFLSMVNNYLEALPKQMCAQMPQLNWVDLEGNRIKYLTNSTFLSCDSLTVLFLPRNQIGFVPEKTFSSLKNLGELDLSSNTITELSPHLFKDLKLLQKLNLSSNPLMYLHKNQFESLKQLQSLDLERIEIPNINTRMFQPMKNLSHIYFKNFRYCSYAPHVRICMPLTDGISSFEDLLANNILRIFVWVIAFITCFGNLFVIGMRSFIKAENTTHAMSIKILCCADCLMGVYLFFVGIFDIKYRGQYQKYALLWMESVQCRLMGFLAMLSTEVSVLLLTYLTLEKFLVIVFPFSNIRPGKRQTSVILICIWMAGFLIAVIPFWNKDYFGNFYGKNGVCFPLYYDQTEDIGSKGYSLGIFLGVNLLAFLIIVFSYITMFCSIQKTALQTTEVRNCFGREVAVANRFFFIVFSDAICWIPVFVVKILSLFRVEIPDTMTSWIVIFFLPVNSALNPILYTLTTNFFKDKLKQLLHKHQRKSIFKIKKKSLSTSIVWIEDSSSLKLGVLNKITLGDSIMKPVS
T2 sequence (P46095 whole entry): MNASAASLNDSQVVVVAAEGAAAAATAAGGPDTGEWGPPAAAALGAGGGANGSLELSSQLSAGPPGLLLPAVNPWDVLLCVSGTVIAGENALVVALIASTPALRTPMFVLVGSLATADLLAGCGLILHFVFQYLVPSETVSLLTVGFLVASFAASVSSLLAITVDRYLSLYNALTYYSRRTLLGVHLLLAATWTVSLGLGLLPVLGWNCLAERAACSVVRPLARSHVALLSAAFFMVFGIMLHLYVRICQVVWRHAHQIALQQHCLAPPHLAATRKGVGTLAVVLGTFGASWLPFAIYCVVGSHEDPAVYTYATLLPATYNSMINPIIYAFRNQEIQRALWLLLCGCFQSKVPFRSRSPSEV

Regarding `NC(=O)c1nc(F)cnc1O` [favipiravir, 6-fluoro-3-hydroxy-2-pyrazinecarboxamide], the activation at 100 µM at 348 GPCRs [1] (GPCR GPR4 (G Protein-Coupled Receptor 4), 100μM, read-out: % GPCR activation compared to TPA) is -3.16%; at 348 GPCRs [3] (GPCR GPR6 (G protein-coupled receptor 6), 100μM, read-out: % GPCR activation compared to TPA) it was 1.83%; at 348 GPCRs [4] (setting [12]), 0.4%; on 348 GPCRs [5] (GPCR GPR111 (G-protein-coupled receptor 111 (ADGRF2)), 100μM, read-out: % GPCR activation compared to TPA), -1.94%; on 348 GPCRs [7] (setting [14]), -1.59%; on 348 GPCRs [8] (setting [15]), 2.23%. Also, at 348 GPCRs [9] (GPCR PAFR (platelet activating factor receptor), 100μM, read-out: % GPCR activation compared to TPA), the activation at 100 µM was -0.53%. Besides, the activation at 10 µM on 348 GPCRs [2] (setting [11]) was -2.99%; on 348 GPCRs [6] (setting [13]) it was -0.721%. In addition, the “% GPCR activation compared to TPA” value at 348 GPCRs [10] is listed as -0.6733%.

With `CC(C)OC(=O)[C@H](C)N[P@](=O)(OC[C@H]1O[C@@H](n2ccc(=O)[nH]c2=O)[C@](C)(F)[C@@H]1O)Oc1ccccc1` [sofosbuvir], the activation at 10 µM on 348 GPCRs [1] (setting [16]) was 1.94%; on 348 GPCRs [2] (setting [17]), -0.922%; on 348 GPCRs [3] (setting [18]) it was -0.69%; at 348 GPCRs [5] (setting [20]) it was -0.382%; at 348 GPCRs [6] (setting [21]), -2.27%; on 348 GPCRs [9] (setting [24]), -7.19%. In addition, the figures for the activation at 100 µM on 348 GPCRs [4] (setting [19]), on 348 GPCRs [7] (setting [22]) and on 348 GPCRs [8] (setting [23]) were -0.773%, -0.617% and -0.806%, respectively. Also, the “% GPCR activation compared to TPA” value at 348 GPCRs [10] is -1.511%.

For `CCC(CC)COC(=O)[C@H](C)N[P@](=O)(OC[C@H]1O[C@@](C#N)(c2ccc3c(N)ncnn23)[C@H](O)[C@@H]1O)Oc1ccccc1` [remdesivir], the activation at 10 µM on 348 GPCRs [1] (setting [16]) is -1.37%; at 348 GPCRs [2] (setting [17]) it was -2.26%; on 348 GPCRs [3] (setting [18]), 7.41%; at 348 GPCRs [5] (setting [20]), -1.09%; at 348 GPCRs [6] (setting [21]), 1.1%; on 348 GPCRs [9] (setting [24]) it was 6.57%. For the same molecule, the activation at 100 µM on 348 GPCRs [4] (setting [19]) is 3.79%; on 348 GPCRs [7] (setting [22]) it was 6.06%; at 348 GPCRs [8] (setting [23]), 2.91%. On 348 GPCRs [10], the “% GPCR activation compared to TPA” value worked out at 0.3691%.

Consider `N#C[C@@]1(c2ccc3c(N)ncnn23)O[C@H](CO)[C@@H](O)[C@H]1O` [GS441524], for which the activation at 10 µM on 348 GPCRs [1] (setting [25]) was -0.661%; at 348 GPCRs [2] (setting [11]) it was -1.18%; on 348 GPCRs [3] (setting [26]), 5.11%; on 348 GPCRs [5] (setting [27]), -2.52%; at 348 GPCRs [6] (setting [13]), 0.673%; on 348 GPCRs [9] (setting [28]), -1.62%. The values for the activation at 100 µM at 348 GPCRs [4] (setting [12]), at 348 GPCRs [7] (setting [14]) and at 348 GPCRs [8] (setting [15]) were 2.5%, -1.84% and 0.277%, respectively. Besides, the “% GPCR activation compared to TPA” value on 348 GPCRs [10] is on record as -1.305%.

With `CC(C)C(=O)OC[C@H]1O[C@@H](n2ccc(NO)nc2=O)[C@H](O)[C@@H]1O` [molnupiravir], the activation at 10 µM at 348 GPCRs [1] (setting [25]) is -3.97%; on 348 GPCRs [2] (setting [11]) it was -1.93%; on 348 GPCRs [3] (setting [26]), -0.366%; at 348 GPCRs [5] (setting [27]), 0.307%; at 348 GPCRs [6] (setting [13]) it was 0.98%; at 348 GPCRs [9] (setting [28]), -6.72%. For the same molecule, the activation at 100 µM was -1.95% at 348 GPCRs [4] (setting [12]), -0.606% on 348 GPCRs [7] (setting [14]) and 0.495% at 348 GPCRs [8] (setting [15]). The “% GPCR activation compared to TPA” value at 348 GPCRs [10] is on record as -1.679%.
